Test [1] concerns A2780 ovarian cancer cells. In words: Combination with carboplatin, proliferation of A2780 cells. Format: cell-based. The method, then: In vitro toxicity in normal and cancer cells. Cells were seeded in 96-well plates at an appropriate cell density as determined from growth kinetics analysis. Depending on the plating efficiency and lag phase of individual cell lines, cells were allowed to plate down prior to drug exposure. Intra-experimental single agent controls were included to ensure IC50 values obtained for each cell line matched previous IC50 determinations. Four analogue concentrations were employed in each analysis. Analogue concentrations used in each assay were chosen based on IC50 values, which formed the top concentration of analogue used. Subsequent concentrations were chosen based on simple ½ or 1/10 dilutions of the top analogue concentration employed (i.e. 2, 1, 0.5, 0.25 μM). Nine 1/10 serial dilutions of chemotherapeutic were employed with the top chemotherapeutic concentration being 50 μM.
For combined analysis, analogue concentrations were held constant through 1/10 serial dilutions of chemotherapeutic in growth medium (top chemotherapeutic concentration employed was 50 μM). Combined cultures were cultured for 5 days.
The sequence of administration effect of each agent on chemotherapeutic IC50 values was assessed by exposing plated cells to a single agent in sequence for 24 hr. To assess the isoflavonoid derivative→chemotherapeutic sequence, plated cells were first exposed to the appropriate analogue concentrations and incubated at 37° C. for 24 hr. Cells were washed with growth medium and then exposed to the appropriate chemotherapeutic concentrations and incubated for 24 hr. Cells were then washed and incubated for a further 3 days. To assess the chemotherapeutic→isoflavonoid derivative sequence, the procedure was reversed.
Cell proliferation was assessed after the addition of 20 μl of 3-4,5 dimethylthiazol-2,5-diphenyl tetrazolium bromide (MTT, 2.5 mg/ml in PBS, Sigma) for 3-4 hrs at 37° C. according to manufacturer's instructions. IC50 values were calculated from semi-log plots of % of control proliferation on the y-axis against log dose on the x-axis.
3-D model analysis of the cytotoxic interaction between drug A and drug B enables the representation of predicted inhibitory effect of two drugs in combination in 3 dimensions to reveal actual regions of synergy or antagonism. The 3D synergy plots are based on a theory of “Theoretical Additivity” (TA or […]) as outlined by Kanzawa et al. Theoretical Additivity was calculated from the cytotoxicities of drug A and drug B as monotherapies using the following formula which assumes the drugs are mutually exclusive inhibitors: […]
The TA is calculated for each combination of drug concentrations and subtracted from the observed experimental effect for each combination to give a measurement of synergistic or enhanced action.
Combination index (CI) analysis, which employs the median-effect principle correlating drug dose to cytotoxicity, was also employed to assess synergy. The median-effect equation is utilized to calculate the dose of a drug that inhibits “x” percent of cells (Chou and Talalay, 1984). D=Dm[fa/(1−fa)]^1/m
In vitro Assessment of Combination of Optically Active Compound 31 and Carboplatin. Combination studies employed both 24 hr concurrent exposure, and 24 hr sequential exposure (racemic compound 32→Carboplatin) regimens. In both studies, four analogue concentrations (0.25, 0.5, 1 and 5 μM) were held constant against titrated carboplatin. When 1 and 5 μM of compound 32 was assessed in combination with the lowest concentration of carboplatin employed in this study (0.4 μM), no IC50 for carboplatin was achieved due the high levels of cell kill observed (30-40% of control).

In a further test the test system is HuH-7. In words: MTT proliferation assay, HuH-7. It is filed as cell-based, human. The conditions noted are these: Homo sapiens; Liver, HuH-7, 120 h of exposure. The protocol: The human hepatocellular carcinoma lines HepG2 (HB-8065), SK-HEP-1 (HTB-52) and the normal human lung fibroblast line IMR-90 (CCL-186) were cultured in Minimum Essential Eagles Medium containing 2 mM L-glutamine, 2.2 g/L sodium bicarbonate, supplemented with 1 mM sodium pyruvate and 0.1 mM non-essential amino acids. The human hepatocellular carcinoma line JHH-1 (JCRB1062) was cultured in Williams E Medium (Invitrogen) containing 2.2 g/L sodium bicarbonate, supplemented with 2 mM L-glutamine. The hepatocellular carcinoma line HuH-7 (JCRB0403) was cultured in DMEM, supplemented with 2 mM L-glutamine.
(§1) Proliferation Assays. IC50 values were determined for each cell line. Cells were seeded in 96-well plates at an appropriate cell density as determined from growth kinetics analysis and cultured for 5 days in the absence and presence of the test compounds. Cell proliferation was assessed after the addition of 20 μl of 3-4,5 dimethylthiazol-2,5-diphenyl tetrazolium bromide (MTT, 5 mg/ml in PBS, Sigma) for 5 hrs at 37° C. according to manufacturer's instructions. IC50 values were calculated from semi-log plots of % of control proliferation on the y-axis against log dose on the x-axis.
(§2) Anti-proliferative Activity of Isoflavonoid Derivatives. IC50 values were determined for each cell line after 120 h of exposure.

For another test, the system named is CP70. In words: MTT proliferation assay, CP70. Format: cell-based. The essentials: (§3)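 Growth is compared with untreated wells after 120 h of drug treatment, using MTT (5 hrs, 37° C) as the viability signal; IC50 is interpolated from log dose-response plots.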
A general note: Tetrazolium assays rely on reduction of a dye to a coloured formazan, in cell work by metabolically active cells.

For a further test, the system named is A2780. In words: MTT proliferation assay, A2780. It is filed as cell-based. Summed up: as §3
Test [2] relates to A2780 ovarian cancer cells. In words: Combination with carboplatin, proliferation of A2780 cells. It is filed as cell-based. The conditions noted are these: 0.5, 1 and 5 μM of compound plus 0.4 μM carboplatin.
The subject of the next test is MM2200. In words: MTT proliferation assay, MM2200. The conditions noted are these: Table 2, Melanoma, MM2200, 120 hrs of exposure. It is filed as cell-based. The protocol:
as §1, §2
Activity data is provided is Table 2.

Another test concerns SKBR-3. In words: MTT proliferation assay, SKBR-3. It is filed as cell-based, human. The essentials: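 SK-BR-3 breast adenocarcinoma cells in McCoy's 5a medium were exposed to compounds for 5 days (120 h). Proliferation was read by MTT over 5 hrs at 37° C. IC50 came from semi-log plots of % control proliferation against log dose.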

SMILES strings stand for the structures.

What is called IC50 is the midpoint of a concentration-inhibition curve. A low value points to inhibition by little substance. As to `Oc1ccc([C@H]2c3ccc(O)cc3OC[C@H]2c2ccc(O)cc2)cc1` [Compound 31, d-cis-3-(4-hydroxyphenyl)-4-(4-hydroxyphenyl)chroman-7-ol], in test [1] (0.25 μM of compound, A2780, depending on exposure regimen (24 hr concurrent or sequential)), the “enhancement of the anti-cancer effect of carboplatin” value is listed as 7-11 fold. For the same compound, in test [1] (0.5 μM of compound in combination with carboplatin, A2780), the “potency of the inhibition of proliferation compared with compound 34” value is reported as “superior”. For the same compound, the “compound concentration giving maximal activity enhancement with carboplatin” value in test [1] (3D method of Kanzawa, 12.5 μM carboplatin, A2780) amounted to 0.25 µM. For the same compound, the “activity enhancement in combination with carboplatin” value in test [1] (A2780 cell line, 31 compared with compound 32) was “superior in its ability to augment carboplatin toxicity”. Further, the “retardation of A2780 cell proliferation compared with compound 34” value in test [1] (sequential exposure (24 h), 0.25 μM of compound followed by carboplatin) is reported as “superior retardation of A2780 cell proliferation”. Also, the half-inhibitory concentration (IC50) with HuH-7 was 150 to 500 nM; in the test on CP70 (120 h, Ovarian, CP70, 120 h of exposure) it was 510 to 1500 nM; in the test on CP70 (Table 2, Ovarian, CP70, 120 hrs of exposure), 150 to 500 nM; in the test with A2780 (Homo sapiens, A2780, 120 h, Ovarian, A2780, 120 h of exposure), 150 to 500 nM; in the test on A2780 (Table 2, Ovarian, A2780, 120 hrs of exposure), 150 to 500 nM; with MM2200, 510 to 1500 nM. The IC50 in the test with SKBR-3 (Homo sapiens, SK-BR-3, 120 h, Breast, SKBR-3, 120 h of exposure) is no more than 150 nM; with SKBR-3 (Table 2, Breast, SKBR-3, 120 hrs of exposure) it was no more than 150 nM. In addition, in the test with A2780 (120 hrs of exposure, various cancer cells (Table 2)), the “anti-proliferative activity against various cancer cells compared with racemic (compound 32) and l-form (compound 33)” value is “superior anti-proliferative activity”. Further, in test [2], the “cell kill level observed (no IC50 for carboplatin achieved)” value was 25-40 % of control.

Source of the values: patent US12329739B2, “Isoflavonoid compounds and methods for the treatment of cancer” (Aardvark Therapeutics, Inc., priority 2010, dated 2025).
